Values quoted from earlier work, collected in patent publication US11590241B2, “Nanoparticle conjugated synthetic opioid prodrugs and methods of their uses” (VIRGINIA COMMONWEALTH UNIVERSITY, priority 2016, dated 2023).

Legend:
mice = settings: parent compound, earlier data
MOR [1] = molecular target: T1, MOR (Homo sapiens, UniProt P35372); settings: data from Li et al. 2009
T1 construct: expressed in transfected cells; host or cells: CHO (Chinese hamster ovary) cells, membrane preparation

MOR [2] = molecular target: T1, MOR; settings: read-out: Ki (nM) μ; [3H]naloxone; data from Li et al. 2009
morphine-pelleted mice = settings: U.S. Pat. No. 8,980,908
[3] = extensive hepatic first-pass metabolism

T1 sequence (P35372 whole entry): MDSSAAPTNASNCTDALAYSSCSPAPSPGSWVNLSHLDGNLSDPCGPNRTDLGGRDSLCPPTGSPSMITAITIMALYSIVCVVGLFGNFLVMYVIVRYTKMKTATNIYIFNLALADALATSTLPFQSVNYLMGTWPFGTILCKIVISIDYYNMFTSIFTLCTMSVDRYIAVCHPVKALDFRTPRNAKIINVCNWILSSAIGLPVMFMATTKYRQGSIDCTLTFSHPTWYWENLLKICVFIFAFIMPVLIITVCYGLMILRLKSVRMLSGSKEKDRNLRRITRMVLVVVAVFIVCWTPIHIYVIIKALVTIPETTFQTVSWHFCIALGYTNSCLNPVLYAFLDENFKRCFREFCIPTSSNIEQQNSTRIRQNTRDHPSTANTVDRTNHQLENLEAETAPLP

Structure (SMILES)	AD50, blocking the antinociceptive effect of morphine (mice)	agonist activity (antinociception) (mice)	MOR [35S]GTPγS Binding % Emax of DAMGO (MOR [1])	EC50 (MOR [1]; read-out: MOR [35S]GTPγS Binding EC50)	Ki (MOR [2])	intestinal motility (morphine-pelleted mice)	oral bioavailability [3]
O=C(Cc1ccncc1)N[C@@H]1CC[C@@]2(O)[C@H]3Cc4ccc(O)c5c4[C@@]2(CCN3CC2CC2)[C@H]1O5 [NAP, 17-cyclopropylmethyl-3,14 β-dihydroxy-4,5 α-epoxy-6 β-[(4-pyridyl)acetamido]morphinan]	4.98 mg/kg	did not carry any significant agonist activity	22.7 ± 0.8%	1.14 ± 0.38 nM	0.37 ± 0.07 nM	increase intestinal motility	
C=CCN1CC[C@]23c4c5ccc(O)c4O[C@H]2C(=O)CC[C@@]3(O)[C@H]1C5 [Naloxone]							~2%
